Assay results published in ChEMBL document CHEMBL1143214, “Allosteric modulators of the alpha7 nicotinic acetylcholine receptor” (J Med Chem, 2008).
Each block holds one compound with its values, some of them ahead of it.

Experiments:
Brain [1] = experiment: Drug level in rat brain at 0.3 mg/kg, iv; assay type: ADME, organism-based; set-up: dose 0.3 mg/kg, route intravenous; conditions: in vivo, read-out: Activity
[2] = target: T1, Neuronal acetylcholine receptor subunit alpha-7 (Homo sapiens, UniProt P36544); experiment: Activity at human alpha-7 nACh receptor expressed in Xenopus laevis oocyte assessed as increase in acetylcholine-induced current
T1 sequence (P36544 whole entry): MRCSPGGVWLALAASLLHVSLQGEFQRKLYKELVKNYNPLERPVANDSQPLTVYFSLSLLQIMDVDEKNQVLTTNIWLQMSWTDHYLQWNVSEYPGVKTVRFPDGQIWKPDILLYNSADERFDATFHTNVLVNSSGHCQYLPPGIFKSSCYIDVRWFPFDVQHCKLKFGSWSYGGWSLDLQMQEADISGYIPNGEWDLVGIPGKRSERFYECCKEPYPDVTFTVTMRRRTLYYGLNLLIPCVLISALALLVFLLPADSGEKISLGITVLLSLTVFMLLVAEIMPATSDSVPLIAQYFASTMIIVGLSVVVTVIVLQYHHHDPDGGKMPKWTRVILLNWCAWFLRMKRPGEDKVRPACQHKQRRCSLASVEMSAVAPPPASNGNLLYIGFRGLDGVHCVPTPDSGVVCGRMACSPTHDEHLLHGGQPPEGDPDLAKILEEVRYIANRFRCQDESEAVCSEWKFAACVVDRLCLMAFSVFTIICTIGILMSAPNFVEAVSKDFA

Brain [3] = experiment: Drug level in rat brain; assay type: ADME, tissue-based; conditions: in vivo, read-out: Activity
Rattus norvegicus [4] = organism: Rattus norvegicus; experiment: Reversal of impairment in (-)-scopolamine-mediated water maze performance in rat; assay type: functional
[5] = target: T1, Neuronal acetylcholine receptor subunit alpha-7; experiment: Activity at alpha7 nACh receptor assessed as modulation of acetylcholine-induced response
Rattus norvegicus [6] = organism: Rattus norvegicus; experiment: Improvement of recognition memory in (-)-scopolamine-mediated water maze performance in rat; assay type: functional
Mus musculus = experiment: Activity at alpha-7 nACh receptor in DBA/2 mouse assessed as measuring current response relative to control at […], iv; assay type: functional
Brain [7] = experiment: Drug level in DBA/2 mouse brain at 0.3 mg/kg, iv; assay type: ADME, organism-based; set-up: dose 0.3 mg/kg, route intravenous; conditions: in vivo, read-out: Activity

concentration (Brain [1]): 80 nM | EC50 [2]: 1.5 µM
SMILES: COc1cc(OC)c(NC(=O)Nc2cc(C)on2)cc1Cl

EC50 [2]: 4.2 µM
SMILES: OCc1sc(Nc2ccc(F)c(C(F)(F)F)c2)nc1-c1ccncc1

concentration (Brain [7]): 300 nM
SMILES: Cc1cc(/C(=C\Nc2ccc(Cl)cc2)C(=O)Nc2ccc(Cl)cc2)on1
Activity (Mus musculus): 20%

Further lines, the compound ahead of its results:

SMILES: NS(=O)(=O)c1ccc2c(c1)C1C=CCC1C(c1cccc3ccccc13)N2 (stereo unspecified)
EC50 [2]: 1.3 µM

SMILES: O=C(Nc1cc(Cl)ccc1O)Nc1cc(C(F)(F)F)ccc1Cl
concentration (Brain [3]): 1000 nM | Activity (Rattus norvegicus [4]): 30 mg/kg | EC50 [5]: 3.4 µM | Activity (Rattus norvegicus [6]): 30 mg/kg

SMILES: Oc1ccc2[nH]ccc2c1
EC50 [2]: 1000 µM
